In patent US9757596B2, “Composition comprising at least 3 different diols” (AMBRIA DERMATOLOGY AB, priority 2004, dated 2017):

Key:
Format in all cases: cell-based
[1] = tested on: Staphylococcus aureus number 515×6352; experiment: Test for bacteriostatic effect (MIC) in agar medium, S. aureus; settings: combinations: % of each diol; for MIC S. aureaus 10^3: 10^3 cells/ml; for MIC S. aureaus 10^3 / MIC S. aureaus 10^5: DST agar, 37° C., analysed after 1 and 2 days; for MIC S. aureaus 10^5: 10^5 cells/ml; for concentration that completely inhibited the growth of S. aureus: cell concentration not specified
Description: (§1) Staphylococcus aureus number 515×6352 and Candida albicans H 29 were obtained from the Collection in the Department of Microbiology, Sahigrenska University Hospital, Gothenburg, Sweden. The isolates were maintained on blood agar at 37° C. M. sympodialis CBS 7222 and M. globosa CBS 7966
(§2) Test for bacteriostatic effect (MIC=minimal inhitory concentration).
(§3) Each of the diols and their combination (1:1:1 volume/volume) was diluted directly with the test culture medium, Diagnostic Sensitivity test agar (DST) (Oxoid, UK) to obtain concentrations, in the test medium, of 2, 3, 4, 6, 9, and 12% volume percent of the respective diol and of 2, 3, and 4% of the respective diol in the combination.
S. aureus cells were added to the agar medium in concentrations of 10^3 and 10^5 cells/ml while C. albicans cells were added in a concentration of 10^6 cells/ml and M. sympodialis and M. globosa in a concentration of 10^7 cells/ml. Plates were incubated at 37° C. and analysed after 1 and 2 days. Each experiment was repeated. […] The MIC's for propane-1,2-diol, pentane-1,5-diol, 2-methylpentane-2,4-diol and the combination of these 3 diols are shown in the table 1. […]

Candida albicans H 29 = experiment: Test for bacteriostatic effect (MIC) in agar medium, C. albicans; settings: 10^6 cells/ml, DST agar, 37° C., analysed after 1 and 2 days; combinations: % of each diol
Description: as §1, §2, §3
S. aureus cells were added to the agar medium in concentrations of 10^3 and 10^5 cells/ml while C. albicans cells were added in a concentration of 10^6 cells/ml and M. sympodialis and M. globosa in a concentration of 10^7 cells/ml. Plates were incubated at 37° C. and analysed after 1 and 2 days. Each experiment was repeated. […] The MIC's for propane-1,2-diol, pentane-1,5-diol, 2-methylpentane-2,4-diol and the combination of these 3 diols are shown in the table 1.
Example 3 was performed as example 1.

M. globosa CBS 7966 = experiment: Test for bacteriostatic effect (MIC) in agar medium, M. globosa; settings: 10^7 cells/ml, DST agar, 37° C., analysed after 1 and 2 days; combinations: % of each diol
Description: as §1, with “Sahigrenska” left out, “7966 Test for bacteriostatic effect (MIC=minimal inhitory concentration). […] Plates were incubated at 37° C. and analysed after 1 and 2 days. Each experiment was repeated.” for “7966”

M. sympodialis CBS 7222 = experiment: Test for bacteriostatic effect (MIC) in agar medium, M. sympodialis; settings: 10^7 cells/ml, DST agar, 37° C., analysed after 1 and 2 days; combinations: % of each diol
Description: as §1, with “Sahigrenska” left out, “7966 Test for bacteriostatic effect (MIC=minimal inhitory concentration). […] Plates were incubated at 37° C. and analysed after 1 and 2 days. Each experiment was repeated.” for “7966”

Row | SMILES | MIC S. aureaus 10^3 [1] | MIC S. aureaus 10^5 [1] | concentration that completely inhibited the growth of S. aureus [1] | MIC C. albicans 10^6 (Candida albicans H 29) | MIC M. globosa (M. globosa CBS 7966) | MIC M. sympodialis (M. sympodialis CBS 7222)
1 | OCCCCCO [Pentane-1,5-diol] | 12% | 12% | 12% | 4% | 3% | 3%
2 | CC(O)CC(C)(C)O (stereo not drawn) [2-Methyl pentane-2,4-diol] | 12% | 12% | 12% | 4% | 3% | 3%
3 | CC(O)CCO (stereo not drawn) [Butane-1,3-diol] | >12% | >12% |  | 8% | 10% | 10%
4 | CC(O)CO (stereo not drawn) [Propane-1,2-diol] | >12% | >12% |  | 9% | 10% | 10%
5 | CCO [Ethanol] | >12% | >12% |  | 8% | 10% | 10%
